From US10214508B2, “Nitrogen-containing heterocyclic compound” (Takeda Pharmaceutical Company Limited, priority 2014, dated 2019)

Target: T1, human M1 receptor (hCHRM1) (Homo sapiens, UniProt P11229)
T1 construct: expressed in transfected cells
T1 sequence (P11229 1-460): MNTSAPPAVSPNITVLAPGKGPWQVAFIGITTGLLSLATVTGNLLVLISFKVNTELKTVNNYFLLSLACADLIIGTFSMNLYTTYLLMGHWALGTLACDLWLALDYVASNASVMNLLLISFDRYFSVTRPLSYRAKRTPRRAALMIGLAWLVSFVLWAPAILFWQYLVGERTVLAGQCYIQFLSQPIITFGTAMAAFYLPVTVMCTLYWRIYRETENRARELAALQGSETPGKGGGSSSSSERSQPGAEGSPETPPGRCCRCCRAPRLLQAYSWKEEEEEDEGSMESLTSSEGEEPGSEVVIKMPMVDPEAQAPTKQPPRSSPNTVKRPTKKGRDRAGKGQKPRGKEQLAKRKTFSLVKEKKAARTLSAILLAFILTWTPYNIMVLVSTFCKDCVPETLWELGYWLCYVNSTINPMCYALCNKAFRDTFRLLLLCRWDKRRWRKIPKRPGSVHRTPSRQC
Assay: Measurement of M1 receptor positive allosteric modulator (M1PAM) activity, calcium fluorescence (FLIPRtetra)
Assay type: cell-based
Settings: 10 μM test compound with acetylcholine at EC20 (final 0.6-0.8 nM); 100% = acetylcholine 1 μM, 0% = DMSO; CHO-K1 cells expressing hCHRM1
Procedure: Measurement of M1 Receptor Positive Allosteric Modulator (M1PAM) Activity
The activity of a test compound in the presence of acetylcholine at EC20 concentration (final concentration 0.6-0.8 nM), which affords an action corresponding to about 20% of the maximum activity, was measured as PAM activity. The method is as follows. CHO-K1 cells stably expressing a human M1 receptor (hCHRM1) were plated on a 384-well black clear bottom plate (BD Falcon) at 5,000 cells/well, and cultured in an incubator at 37° C., 5% CO2 for 1 day. The medium in the cell plate was removed, and assay buffer A containing calcium indicator (Recording medium (DOJINDO LABORATORIES), 0.1% BSA (Wako Pure Chemical Industries, Ltd.), 2.5 μg/mL Fluo-4 AM (DOJINDO LABORATORIES), 0.08% Pluronic F127 (DOJINDO LABORATORIES), 1.25 mM probenecid (DOJINDO LABORATORIES)) was added at 30 μL/well. The cells were left standing in the incubator at 37° C., 5% CO2 for 30 min, and further left standing at room temperature for 30 min. A test compound prepared by diluting with assay buffer B (HBSS (Invitrogen), 20 mM HEPES (Invitrogen), 0.1% BSA) containing 2.4-3.2 nM acetylcholine was added at 10 μL/well, and the fluorescence was measured by FLIPRtetra (Molecular Devices) for 1 min every for 1 second. With the definition that the amount of change in the fluorescence on addition of acetylcholine (final concentration 1 μM) is 100% and that on addition of DMSO instead of a test compound is 0%, the activity (%) of the test compound was calculated, and the inflection point in the concentration-dependent curve of the test compound was calculated as IP values.

SMILES	activity (%) at 10 μM
COc1cnc(C(=O)N[C@H]2CCC[C@@H]2O)cc1Cc1ccc(-n2cccn2)cc1 [Example 60, N-((1S,2S)-2-hydroxycyclopentyl)-5-methoxy-4-(4-(1H-pyrazol-1-yl)benzyl)pyridine-2-carboxamide]	87%
COc1cnc(C(=O)N[C@H]2CCCC[C@@H]2O)cc1Cc1ccc(Cl)nc1 [Example 61, 4-((6-chloropyridin-3-yl)methyl)-N-((1S,2S)-2-hydroxycyclohexyl)-5-methoxypyridine-2-carboxamide]	108%
COc1cnc(C(=O)N[C@H]2CCCC[C@@H]2O)cc1Cc1ccc(Br)cc1 [Example 62, 4-(4-bromobenzyl)-N-((1S,2S)-2-hydroxycyclohexyl)-5-methoxypyridine-2-carboxamide]	96%
COc1cnc(C(=O)N[C@H]2CCCC[C@@H]2O)cc1Cc1ccc(-n2cccn2)cc1 [Example 63, N-((1S,2S)-2-Hydroxycyclohexyl)-5-methoxy-4-(4-(1H-pyrazol-1-yl)benzyl)pyridine-2-carboxamide]	94%
N#Cc1cnc(C(=O)N[C@H]2CCCC[C@@H]2O)cc1Cc1ccc(-n2cccn2)cc1 [Example 67, 5-cyano-N-((1S,2S)-2-hydroxycyclohexyl)-4-(4-(1H-pyrazol-1-yl)benzyl)pyridine-2-carboxamide]	95%
COc1cc(Cc2ccc(-n3cccn3)cc2)cc(C(=O)N[C@H]2CCC[C@@H]2O)n1 [Example 68, N-((1S,2S)-2-hydroxycyclopentyl)-6-methoxy-4-(4-(1H-pyrazol-1-yl)benzyl)pyridine-2-carboxamide]	96%
COc1cc(Cc2ccc(-n3cccn3)cc2)cc(C(=O)N[C@H]2CCCC[C@@H]2O)n1 [Example 69, N-((1S,2S)-2-hydroxycyclohexyl)-6-methoxy-4-(4-(1H-pyrazol-1-yl)benzyl)pyridine-2-carboxamide]	100%
Cc1cc(Cc2ccc(-n3cccn3)cc2)cc(C(=O)N[C@H]2CCCC[C@@H]2O)n1 [Example 70, N-((1S,2S)-2-hydroxycyclohexyl)-6-methyl-4-(4-(1H-pyrazol-1-yl)benzyl)pyridine-2-carboxamide]	87%
COc1ccc(Cc2cc(C)nc(C(=O)N[C@H]3CCCC[C@@H]3O)c2)cc1 [Example 71, N-((1S,2S)-2-hydroxycyclohexyl)-4-(4-methoxybenzyl)-6-methylpyridine-2-carboxamide]	69%
COc1ccc(Cc2cc(C(=O)N[C@H]3COCC[C@@H]3O)nc(C)c2C)cc1 [Example 83, 1,5-anhydro-2,4-dideoxy-2-(((4-(4-methoxybenzyl)-5,6-dimethylpyridin-2-yl)carbonyl)amino)-L-threo-pentitol]	103%
Cc1nc(C(=O)N[C@H]2COCC[C@@H]2O)cc(Cc2ccc(Cl)nc2)c1C [Example 85, 1,5-anhydro-2-(((4-((6-chloropyridin-3-yl)methyl)-5,6-dimethylpyridin-2-yl)carbonyl)amino)-2,4-dideoxy-L-threo-pentitol]	99%
Cc1nc(C(=O)N[C@H]2COCC[C@@H]2O)cc(Cc2ccc(-c3ccn(C)n3)nc2)c1C [Example 86, 1,5-anhydro-2,4-dideoxy-2-(((5,6-dimethyl-4-((6-(1-methyl-1H-pyrazol-3-yl)pyridin-3-yl)methyl)pyridin-2-yl)carbonyl)amino)-L-threo-pentitol]	95%
COc1nc(C(=O)N[C@H]2COCC[C@@H]2O)cc(Cc2ccc(-c3ccn(C)n3)cc2)c1C [Example 87, 1,5-anhydro-2,4-dideoxy-2-(((6-methoxy-5-methyl-4-(4-(1-methyl-1H-pyrazol-3-yl)benzyl)pyridin-2-yl)carbonyl)amino)-L-threo-pentitol]	92%

Other lines, results leading:

activity (%) at 10 μM	SMILES
90%	COc1cnc(C(=O)N[C@H]2CCCC[C@@H]2O)cc1Cc1ccc(-c2cnn(C)c2)nc1 [Example 59, N-((1S,2S)-2-hydroxycyclohexyl)-5-methoxy-4-((6-(1-methyl-1H-pyrazol-4-yl)pyridin-3-yl)methyl)pyridine-2-carboxamide]
104%	COc1cnc(C(=O)N[C@H]2CCCC[C@@H]2O)cc1Cc1ccc(-c2cnn(C)c2)cc1 [Example 64, N-((1S,2S)-2-hydroxycyclohexyl)-5-methoxy-4-(4-(1-methyl-1H-pyrazol-4-yl)benzyl)pyridine-2-carboxamide]
106%	Cc1nc(C(=O)N[C@H]2CCCC[C@@H]2O)cc(Cc2ccc(-c3ccn(C)n3)cc2)c1Cl [Example 65, 5-chloro-N-((1S,2S)-2-hydroxycyclohexyl)-6-methyl-4-(4-(1-methyl-1H-pyrazol-3-yl)benzyl)pyridine-2-carboxamide]
105%	Cc1nc(C(=O)N[C@H]2CCCC[C@@H]2O)cc(Cc2ccc(C#N)cc2)c1Cl [Example 66, 5-chloro-4-(4-cyanobenzyl)-N-((1S,2S)-2-hydroxycyclohexyl)-6-methylpyridine-2-carboxamide]
94%	Cc1nc(C(=O)N[C@H]2CCCC[C@@H]2O)cc(Cc2ccc(Cl)nc2)c1C [Example 73, 4-((6-chloropyridin-3-yl)methyl)-N-((1S,2S)-2-hydroxycyclohexyl)-5,6-dimethylpyridine-2-carboxamide]
102%	Cc1nc(C(=O)N[C@H]2CCC[C@@H]2O)cc(Cc2ccc(-n3cccn3)cc2)c1C [Example 75, N-((1S,2S)-2-hydroxycyclopentyl)-5,6-dimethyl-4-(4-(1H-pyrazol-1-yl)benzyl)pyridine-2-carboxamide]
92%	Cc1nc(C(=O)N[C@H]2CCCC[C@@H]2O)cc(Cc2ccc(-n3cccn3)cc2)c1C [Example 76, N-((1S,2S)-2-hydroxycyclohexyl)-5,6-dimethyl-4-(4-(1H-pyrazol-1-yl)benzyl)pyridine-2-carboxamide]
100%	Cc1nc(C(=O)N[C@H]2CCCC[C@@H]2O)cc(Cc2ccc(Br)cc2)c1C [Example 77, 4-(4-bromobenzyl)-N-((1S,2S)-2-hydroxycyclohexyl)-5,6-dimethylpyridine-2-carboxamide]
104%	Cc1nc(C(=O)N[C@H]2COCC[C@@H]2O)cc(Cc2ccc(-n3cccn3)cc2)c1C [Example 78, 1,5-anhydro-2,4-dideoxy-2-(((5,6-dimethyl-4-(4-(1H-pyrazol-1-yl)benzyl)pyridin-2-yl)carbonyl)amino)-L-threo-pentitol]
106%	Cc1nc(C(=O)N[C@H]2CCCC[C@@H]2O)cc(Cc2ccc(-c3cnn(C)c3)cc2)c1C [Example 79, N-((1S,2S)-2-hydroxycyclohexyl)-5,6-dimethyl-4-(4-(1-methyl-1H-pyrazol-4-yl)benzyl)pyridine-2-carboxamide]
84%	Cc1nc(C(=O)N[C@H]2CCCC[C@@H]2O)cc(Cc2ccc(-c3cnn(C)c3)nc2)c1C [Example 80, N-((1S,2S)-2-hydroxycyclohexyl)-5,6-dimethyl-4-((6-(1-methyl-1H-pyrazol-4-yl)pyridin-3-yl)methyl)pyridine-2-carboxamide]
97%	Cc1nc(C(=O)N[C@H]2CCCC[C@@H]2O)cc(Cc2ccc(-c3ccn(C)n3)cc2)c1C [Example 81, N-((1S,2S)-2-hydroxycyclohexyl)-5,6-dimethyl-4-(4-(1-methyl-1H-pyrazol-3-yl)benzyl)pyridine-2-carboxamide]
103%	Cc1nc(C(=O)N[C@H]2COCC[C@@H]2O)cc(Cc2ccc(-c3ccn(C)n3)cc2)c1C [Example 82, 1,5-anhydro-2,4-dideoxy-2-(((5,6-dimethyl-4-(4-(1-methyl-1H-pyrazol-3-yl)benzyl)pyridin-2-yl)carbonyl)amino)-L-threo-pentitol]
93%	Cc1ccc(Cc2cc(C(=O)N[C@H]3CCCC[C@@H]3O)nc(C)c2C)cn1 [Example 84, N-((1S,2S)-2-hydroxycyclohexyl)-5,6-dimethyl-4-((6-methylpyridin-3-yl)methyl)pyridine-2-carboxamide]
